From PubChem BioAssay (NCI)
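A five-concentration, 48-hour dose response in 96-well plates underlies each endpoint, interpolated linearly between surrounding concentrations. TGI marks complete inhibition of growth.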

Experiments:
Test in all cases: inhibition of tumour cell growth, NCI panel, 48 h
SN12C renal = tested on: SN12C renal
MDA-MB-231 breast = tested on: MDA-MB-231 breast
CAKI-1 renal = tested on: CAKI-1 renal
HOP-92 NSCLC = tested on: HOP-92 NSCLC
A498 renal = tested on: A498 renal
SF-268 CNS = tested on: SF-268 CNS
OVCAR-8 ovarian = tested on: OVCAR-8 ovarian
OVCAR-4 ovarian = tested on: OVCAR-4 ovarian
SF-295 CNS = tested on: SF-295 CNS
K-562 leukemia = tested on: K-562 leukemia

SMILES	TGI (SN12C renal) [µM]	TGI (MDA-MB-231 breast) [µM]	TGI (CAKI-1 renal) [µM]	TGI (HOP-92 NSCLC) [µM]	TGI (A498 renal) [µM]	TGI (SF-268 CNS) [µM]	TGI (OVCAR-8 ovarian) [µM]	TGI (OVCAR-4 ovarian) [µM]	TGI (SF-295 CNS) [µM]	TGI (K-562 leukemia) [µM]
O=C1c2cccc([N+](=O)[O-])c2C(=O)N1Cc1ccccc1	> 100	> 100	> 100	> 100	> 100	> 100	> 100	> 100	> 100	> 100
O=[N+]([O-])c1ccccc1OCCOc1ccccc1[N+](=O)[O-]	> 100	> 100	> 100	> 100	> 100	> 100	> 100	> 100	> 100	> 100
O=C(Nc1ccccc1)N(C1=NCC(CI)S1)c1ccc(F)c(F)c1 (stereo not given)	> 100	83.5	> 100	26.3	> 100	> 100	> 100	> 100	> 100	> 100
Cn1c(=O)c2c(nc3n(CC(O)CCl)c(=O)ccn23)n(C)c1=O (stereo not given)	> 100	> 100	66.2	> 100	> 100	> 100	> 100	> 100	> 100	> 100
CC1CC[C@@]2(OC1)OC1C[C@H]3[C@@H]4CC=C5CC(OC6OC(CO)C(OC7OC(CO)C(O)C(OC8OCC(O)C(O)C8O)C7OC7OC(CO)C(OC8OC(C)C(OC9OC(C)C(O)C(O)C9O)C(O)C8O)C(O)C7O)C(O)C6O)CCC5(C)[C@H]4CCC3(C)C1[C@@H]2C (stereo not given in full)	17	11.9	15.3	14.8	8.7	18	19.4	12.8	13.8	19.6
Cc1cc(C)nc(NS(=O)(=O)c2ccc(NC(=O)c3c4ccccc4nc4ccccc34)cc2)n1	> 100	> 100	> 100	> 100	> 100	> 100	> 100	> 100	> 100	> 100
COc1ccc(N2C(=O)C3c4[nH]c5ccc(OCc6ccccc6)cc5c4C4CCC(c5ccccc5)CC4C3C2=O)cc1 (stereo not given)	> 100	27.3	25.8	10.3	50.4	37.4	47.5	3.04	36.5	12
CC(=O)Nc1ccc2c(C)c3c(nc2n1)[nH]c1ccccc13	> 100	> 100	96.2	79	> 100	> 100	87.6	> 100	78.8	> 100
c1ccc(/C(=N/Nc2nc3ccccc3s2)C2CCCCC2)nc1	22.7	27.3	21.6	22.1	31.4	25	14.3	22.3	29.9	70
O=C(O)CN(CC(=O)O)C1CCCCC1N1CC(=O)OC(=O)C1 (stereo not given)	> 100	> 100	> 100	> 100	> 100	> 100	> 100	> 100	> 100	> 100
O=C(O)CCc1nc2c(n1-c1ccccc1)C(=O)c1ccccc1C2=O	> 100	> 100	> 100	61.3	> 100	> 100	> 100	> 100	> 100	> 100
O=C(O)CC(Cc1ccccc1Cl)C(=O)O (stereo not given)	> 100	> 100	> 100	> 100	> 100	> 100	> 100	> 100	> 100	> 100
Cn1nc2ccc([N+](=O)[O-])c(Cn3nnc4ccccc43)c2n1	> 100	> 100	> 100	> 100	> 100	> 100	> 100	> 100	> 100	> 100
N#Cc1c(-c2ccc(Cl)cc2)c2c(nn3c4ccc5ccccc5c4nnc23)[nH]c1=O	12.2	20.6	8.5	6.72	3.69	8.26	6.98	21.6	5.47	> 69.6
Cc1ccc(Nc2nc3[nH]ccc3c(=O)[nH]2)cc1	> 100	> 100	> 100	> 100	> 100	> 100	> 100	> 100	> 100	> 100
Oc1cc(Cc2ccccc2)c(Cc2ccccc2)cc1O	> 10	> 10	> 10	> 10	> 10	> 10	> 10	> 10	> 10	> 10
